# Measured values as given in PMC8318836 (Bioorganic Chemistry, 2021).
# Columns and labels:
# SARS-CoV-2 pseudovirus [1] = type: cell-based; conditions: for EC50: read-out: EC50-SARS-CoV-2
# VSV G pseudovirus = type: cell-based, vesicular stomatitis virus (VSV); conditions: read-out: EC50-VSV
# Huh 7 cells = conditions: concentration of 50% cellular toxicity in Huh 7 cells
# SARS-CoV-2 pseudovirus [2] = assay: Single-cycle time-of-addition experiment on SARS-CoV-2 pseudovirus; type: cell-based; conditions: 25 µM, Huh 7 cells
Structure (SMILES),EC50 (SARS-CoV-2 pseudovirus [1]),EC50 (VSV G pseudovirus),CC50 (Huh 7 cells),anti-SARS-CoV-2 activity compared to lead 1 (SARS-CoV-2 pseudovirus [1]),"inhibition rate, process d (SARS-CoV-2 pseudovirus [2]; added 1 h post infection)","inhibition rate, process b (SARS-CoV-2 pseudovirus [2]; added during pseudovirus infection at 0 °C)","inhibition rate, process a (SARS-CoV-2 pseudovirus [2]; added during pseudovirus infection at 37 °C)"
"O=C(CN1CCCC2=CC3CC(CN4CCCCC34)C21)Nc1ccc(I)cc1 (stereo not shown) [11c, 12N-N′-p-Iodophenylcarbamoylmethyl aloperine]",29.5 µM,47.8 µM,124 µM,,,,
"O=C(CN1CCCC2=CC3CC(C4CCCCN4C3)C21)Nc1ccc(Cl)cc1Cl (stereo not shown) [11d, 12N-N′-(2,4-Dichlorophenyl)carbamoylmethyl aloperine]",54.8 µM,70.5 µM,167 µM,,,,
"O=C(CN1CCCC2=CC3CC(C4CCCCN4C3)C21)Nc1cc(Br)ccc1Cl (stereo not shown) [11g, 12N-N′-(5-Bromo-2-chlorophenyl)carbamoylmethyl aloperine]",90.3 µM,77.5 µM,> 267 µM,,,,
"Cc1cc(Cl)ccc1NC(=O)CN1CCCC2=CC3CC(C4CCCCN4C3)C21 (stereo not shown) [11j, 12N-N′-(4-Chloro-2-methylphenyl)carbamoylmethyl aloperine]",107 µM,75.1 µM,> 267 µM,,,,
"O=C(CN1CCCC2=CC3CC(C4CCCCN4C3)C21)Nc1cc(Cl)cc(C(F)(F)F)c1 (stereo not shown) [11k, 12N-N′-(3-Chloro-5-trifluoromethylphenyl)carbamoylmethyl aloperine]",10.4 µM,17.5 µM,57.1 µM,slightly elevated activity,,,
"Cc1ccc(NC(=O)CN2CCCC3=CC4CC(CN5CCCCC45)C32)cc1C (stereo not shown) [11n, 12N-N′-(3,4-Dimethylphenyl)carbamoylmethyl aloperine]",70.8 µM,108 µM,> 267 µM,,,,
"O=C(CN1CCCC2=CC3CC(CN4CCCCC34)C21)Nc1cc(C(F)(F)F)cc(C(F)(F)F)c1 (stereo not shown) [11o, 12N-N′-(3,5-Ditrifluoromethylphenyl)carbamoylmethyl aloperine]",17 µM,21.9 µM,71 µM,,,,
"O=C(CN1CCCC2=CC3CC(C4CCCCN4C3)C21)Nc1ccc2ccccc2c1 (stereo not shown) [11p, 12N-N′-(2-Naphthyl)carbamoylmethyl aloperine]",37.1 µM,43.5 µM,96.7 µM,,,,
"O=C(CN1CCCC2=CC3CC(CN4CCCCC34)C21)Nc1ccc2ccccc2n1 (stereo not shown) [11q, 12N-N′-(2-Quinolyl)carbamoylmethyl aloperine]",67.4 µM,120 µM,> 267 µM,,,,
"O=C(CNc1ccccc1)N1CCCC2=CC3CC(CN4CCCCC34)C21 (stereo not shown) [14a, 12N-N′-Phenylaminoacetyl aloperine]",> 267 µM,> 267 µM,> 267 µM,,,,
"O=C(CNc1ccc(F)cc1)N1CCCC2=CC3CC(CN4CCCCC34)C21 (stereo not shown) [14b, 12N-N′-p-Fluorophenylaminoacetyl aloperine]",177 µM,> 267 µM,> 267 µM,,,,
"O=C(CNc1ccc(Cl)cc1)N1CCCC2=CC3CC(CN4CCCCC34)C21 (stereo not shown) [14d, 12N-N′-p-Chlorophenylaminoacetyl aloperine]",61.3 µM,163 µM,> 267 µM,,,,
"O=C(CNc1ccc(Br)cc1)N1CCCC2=CC3CC(CN4CCCCC34)C21 (stereo not shown) [14e, 12N-N′-p-Bromophenylaminoacetyl aloperine]",37.3 µM,85.4 µM,180 µM,,,,
"O=C(CNc1cccc(C(F)(F)F)c1)N1CCCC2=CC3CC(CN4CCCCC34)C21 (stereo not shown) [14h, 12N-N′-m-Trifluoromethylphenylaminoacetyl aloperine]",69.2 µM,134 µM,> 267 µM,,,,
"COc1cccc(NCC(=O)N2CCCC3=CC4CC(C5CCCCN5C4)C32)c1 (stereo not shown) [14i, 12N-N′-m-Methoxyphenylaminoacetyl aloperine]",> 267 µM,> 267 µM,> 267 µM,,,,
"O=C(CNc1ccc(Cl)cc1Cl)N1CCCC2=CC3CC(CN4CCCCC34)C21 (stereo not shown) [14k, 12N-N′-(2,4-Dichlorophenylamino)acetyl aloperine]",17.8 µM,36.2 µM,65.8 µM,,,,
"O=C(CNc1ccc(Cl)c(Cl)c1)N1CCCC2=CC3CC(C4CCCCN4C3)C21 (stereo not shown) [14l, 12N-N′-(3,4-Dichlorophenylamino)acetyl aloperine]",15.8 µM,35.9 µM,63 µM,,,,
"Cc1cc(C)cc(NCC(=O)N2CCCC3=CC4CC(CN5CCCCC45)C32)c1 (stereo not shown) [14m, 12N-N′-(3,5-Dimethylphenylamino)acetyl aloperine]",> 267 µM,> 267 µM,> 267 µM,,,,
"COc1cc(NCC(=O)N2CCCC3=CC4CC(CN5CCCCC45)C32)cc(OC)c1 (stereo not shown) [14n, 12N-N′-(3,5-Dimethoxyphenylamino)acetyl aloperine]",> 267 µM,> 267 µM,> 267 µM,,,,
"O=C(CNc1cc(C(F)(F)F)cc(C(F)(F)F)c1)N1CCCC2=CC3CC(CN4CCCCC34)C21 (stereo not shown) [14o, 12N-N′-(3,5-Ditrifluoromethylphenylamino)acetyl aloperine]",37.6 µM,48.3 µM,113 µM,,,,
"O=C(CNc1cccc2ccccc12)N1CCCC2=CC3CC(C4CCCCN4C3)C21 (stereo not shown) [14p, 12 N-N′-(1-Naphthylamino)acetyl aloperine]",73.6 µM,125 µM,199 µM,,,,
"O=C(CNc1ccc2ccccc2c1)N1CCCC2=CC3CC(CN4CCCCC34)C21 (stereo not shown) [14q, 12N-N′-(2-Naphthylamino)acetyl aloperine]",87.2 µM,108 µM,224 µM,,,,
"O=C(Nc1ccc(F)cc1F)N1CCCC2=CC3CC(CN4CCCCC34)C21 (stereo not shown) [15a, 12N-N′-(2,4-Difluorophenyl)carbamoyl aloperine]",195 µM,139 µM,> 267 µM,,,,
"O=C(Nc1cc(C(F)(F)F)cc(C(F)(F)F)c1)N1CCCC2=CC3CC(CN4CCCCC34)C21 (stereo not shown) [15c, 12N-N′-(3,5-Ditrifluoromethylphenyl)carbamoyl aloperine]",11.5 µM,14.9 µM,53.9 µM,,,,
"CCCNC(=O)[C@H]1O[C@@H]1C(=O)N[C@H](C(=O)N1CCC[C@H]1C(=O)O)[C@@H](C)CC [CA-074, reference compound]",2.7 µM,10.5 µM,231 µM,,93%,77%,87%
